{"source": "patent US20130023504A1", "about": "“Modulation of Prostaglandin/Cyclooxygenase Metabolic Pathways” (HUNTER-FLEMING LIMITED, priority 2006, published 2013)", "tested_on": "rat sensory neurones", "experiment": "Cisplatin-induced neuronal cell death, number of cell bodies per field in dorsal root ganglia sensory neurones (anti MAP-2)", "assay_type": "cell-based", "conditions": "for % Control without cisplatin (cell bodies) / number of cell bodies per field, Average: cisplatin 3 μg/ml", "method": "Primary cultures of dissociated dorsal root ganglia sensory neurones were incubated with 3 μg/ml cisplatin, with and without 7β-OH EPIA for 48 hours and 72 hours and the following parameters were evaluated:\nneurone cell bodies stained with an anti MAP 2 antibody (microtubule associated protein 2)\nRat sensory neurones were prepared according to the method described by Hall et al 1997 [Hall et al. (J. Neurosci. 1997 Apr. 15; 17(8); 2775-84]. Briefly, a female rat (15 days gestation) was killed by cervical dislocation (Rats Wistar; Janvier, Le Genest-St-lsle, France) and the foetuses removed from the uterus. Their spinal cords with the dorsal root ganglia (DRG) were removed and placed in ice-cold medium of Leibovitz (L15, Fisher 11415-049) containing Penicillin 50 UI/ml-Streptomycin 50 μg/ml (PS, 1%) and bovine serum albuminutes (BSA 1%, Sigma A6003). The DRG were recovered and dissociated by trypsinisation for 20 minutes at 37° C. (trypsin EDTA 10×, 10%, Fisher 15400054) diluted in PBS without calcium and magnesium (Fisher 2007-03). The reaction was stopped by addition of Dulbecco modified Eagle medium (DMEM, Fisher 21969-035) containing DNase I grade II (0.1 mg/ml Roche diagnostic 104159) and foetal bovine serum (FBS 10%, Fisher 10270-098). The cell suspension was triturated with a 10 ml pipette and centrifuged at 350×g for 10 minutes at room temperature. The pellet of dissociated cells was then resuspended in defined culture medium.\nViable cells were counted in a Neubauer cytometer using the trypan blue exclusion test (Sigma) and seeded at a density of 30 000 cells/well in 96 well-plates (Nunc). Wells were pre-coated with poly-L-lysine (10 μg/ml, Sigma P2636) in ultra pure sterile water (Merck Eurolab 60759.01).\nCells were allowed to adhere for 2 h and maintained in a humidified incubator at 37° C. in 5% CO2/95% air atmosphere.\nAfter 5 days of culture, the culture medium was changed into a defined culture medium following the different conditions described below:\nTest compound 7β-OH EPIA (1 nM, 10 nM and 100 nM)+cisplatin (3 μg/ml)\nReference compound NGF (10 ng/ml)+cisplatin (3 μg/ml)\nSix wells per condition were carried out to assess neuronal survival. After 48 hours and 72 hours of incubation, the neuronal cells were fixed for 5 minutes in an ethanol/acetic acid solution (95%/5%) at −20° C. and rinsed 3 times in PBS.\nCell bodies of sensory neurones were labelled by monoclonal anti MAP-2 antibody (Sigma M4403) and the neurite of sensory neurones were labelled by monoclonal β-Tubulin antibody (Sigma T8660). These antibodies were diluted at 1:400 in incubation solution (PBS with 5% of FCS and 0.1% of saponin, Sigma S-7900). These antibodies specifically label neurone cell bodies and neuritis, respectively.\nAfter 2 hours of incubation, the cells were washed in PBS and incubated with Alexa Fluor 488 goat anti mouse IgG (Molecular Probes A11001) diluted at 1:300 in incubation solution to reveal the MAP-2 and the β-Tubulin antibodies. Cell nuclei were stained with a fluorescent marker (Hoechst staining solution, SIGMA H6024, 1 μg/ml in incubation solution during 1 hour).\nFor each condition, 2 pictures per well (12 pictures per condition) were taken using In Cell Analyzer 1000 (Amersham Biosciences) controlled by the computer software In Cell Analyzer 1000 3.2. For the MAP-2 labelling, the magnification was ×10, for the β-Tubulin labelling, the magnification was ×20. For each labelling, all the images were taken in the same conditions.\nAnalysis of the number of cell bodies labelled with anti-MAP-2 antibodies, and total length of neurites labelled with anti β-Tubulin antibodies, were carried out using In Cell Analyzer 1000 3.2.Workstation software. The results were expressed in percentage compared to the vehicle. The comparisons of each group were carried out using the unpaired T test.", "note": "Values joined by “and” are separate entries in the source; they are usually repeats but may differ in a detail not shown here. Identical values can stand only once."}
{"compound": "CC12CCC3C(C1CCC2=O)[C@@H](O)C[C@H]1C[C@@H](O)CCC31C", "note": "(stereo partly drawn) [Compound 7β-OH-EPIA, 7β-hydroxy-EPIAndrosterone]", "values": [{"measurement": "reduction of cisplatin-induced cell death", "setting": "1 nM, 48 hours", "result": 53.1, "unit": "%"}, {"measurement": "reduction of cisplatin-induced cell death", "setting": "1 nM, 72 hours", "result": 93, "unit": "%"}, {"measurement": "% Control without cisplatin (cell bodies)", "setting": "1 nM, 48 hours", "result": 85, "unit": "%"}, {"measurement": "number of cell bodies per field, Average", "setting": "1 nM, 48 hours", "result": "51 and 51.42"}, {"measurement": "% Control without cisplatin (cell bodies)", "setting": "1 nM, 72 hours", "result": 98, "unit": "%"}, {"measurement": "number of cell bodies per field, Average", "setting": "1 nM, 72 hours", "result": "52 and 52.42"}, {"measurement": "reduction of cisplatin-induced cell death", "setting": "10 nM, 48 hours", "result": 18.7, "unit": "%"}, {"measurement": "reduction of cisplatin-induced cell death", "setting": "10 nM, 72 hours", "result": 104, "unit": "%"}, {"measurement": "% Control without cisplatin (cell bodies)", "setting": "10 nM, 48 hours", "result": 75, "unit": "%"}, {"measurement": "number of cell bodies per field, Average", "setting": "10 nM, 48 hours", "result": "45 and 45.50"}, {"measurement": "% Control without cisplatin (cell bodies)", "setting": "10 nM, 72 hours", "result": 1.2, "unit": "%"}, {"measurement": "number of cell bodies per field, Average", "setting": "10 nM, 72 hours", "result": "55 and 54.58"}, {"measurement": "reduction of cisplatin-induced cell death", "setting": "100 nM, 48 hours", "result": 43.8, "unit": "%"}, {"measurement": "reduction of cisplatin-induced cell death", "setting": "100 nM, 72 hours", "result": 93, "unit": "%"}, {"measurement": "% Control without cisplatin (cell bodies)", "setting": "100 nM, 48 hours", "result": 82, "unit": "%"}, {"measurement": "number of cell bodies per field, Average", "setting": "100 nM, 48 hours", "result": "50 and 49.58"}, {"measurement": "% Control without cisplatin (cell bodies)", "setting": "100 nM, 72 hours", "result": 97, "unit": "%"}, {"measurement": "number of cell bodies per field, Average", "setting": "100 nM, 72 hours", "result": "52 and 52.25"}]}
